Results from patent US20220242851A1, “CRYSTAL FORM AND SALT OF QUINAZOLINE COMPOUND AND PREPARATION METHOD THEREOF” (SHENZHEN JINRUI FOUNDATION BIOTECH CO., LTD, priority 2019, published 2022).

Tests used:
[1] = test system: subcutaneous xenograft tumor of human gastric cancer NCI-N87 cells; assay: In vivo pharmacodynamics, NCI-N87 subcutaneous xenograft (Assay Example 4); design: species or system mouse; conditions: 0.5 mg/kg, compared with the vehicle control group
Method: Purpose of the assay: in vivo efficacy of the assay compound disclosed herein on subcutaneous xenograft tumor of human gastric cancer NCI-N87 cells in a BALB/c nude mouse model was evaluated.
Animals of the assay: female BALB/c nude mice, 6-8 weeks old, weighted 18-22 grams; supplier: shanghai sippr bk laboratory animals Ltd.
Human gastric cancer NCI-N87 cells were cultured in monolayer in vitro. The culture conditions were RPMI-1640 medium plus 10% fetal bovine serum, 100 U/mL penicillin, 100 μg/mL streptomycin, 37° C., 5% CO2. The passaging was performed by conventional digestion with trypsin-EDTA twice a week. When the cell saturation was 80%-90%, the cells were collected, counted and inoculated.
0.2 mL (10×10^6) of NCI-N87 cells (PBS+Matrigel, 1:1) were inoculated subcutaneously on the right back of each mouse. […]
The assay index was to investigate whether tumor growth is inhibited, delayed or cured. Tumor diameter was measured twice a week with a vernier caliper. […]
The antitumor efficacy of the compounds was evaluated by TGI (%) or tumor proliferation rate T/C (%). […]
Statistical analysis included the mean and standard error of mean (SEM) of tumor volume at each time point in each group (See Table 14 for specific data). […] The comparison between groups was analyzed by T-test, and the comparison among three or more groups was analyzed by one-way ANOVA. […]

[2] = molecular target: HER4(ErbB4) (Homo sapiens, UniProt Q15303); assay: In vitro enzyme activity, HER4 (radiometric, Eurofins); format: biochemical; conditions: conclusion
Sequence of HER4(ErbB4) (Q15303 26-1308): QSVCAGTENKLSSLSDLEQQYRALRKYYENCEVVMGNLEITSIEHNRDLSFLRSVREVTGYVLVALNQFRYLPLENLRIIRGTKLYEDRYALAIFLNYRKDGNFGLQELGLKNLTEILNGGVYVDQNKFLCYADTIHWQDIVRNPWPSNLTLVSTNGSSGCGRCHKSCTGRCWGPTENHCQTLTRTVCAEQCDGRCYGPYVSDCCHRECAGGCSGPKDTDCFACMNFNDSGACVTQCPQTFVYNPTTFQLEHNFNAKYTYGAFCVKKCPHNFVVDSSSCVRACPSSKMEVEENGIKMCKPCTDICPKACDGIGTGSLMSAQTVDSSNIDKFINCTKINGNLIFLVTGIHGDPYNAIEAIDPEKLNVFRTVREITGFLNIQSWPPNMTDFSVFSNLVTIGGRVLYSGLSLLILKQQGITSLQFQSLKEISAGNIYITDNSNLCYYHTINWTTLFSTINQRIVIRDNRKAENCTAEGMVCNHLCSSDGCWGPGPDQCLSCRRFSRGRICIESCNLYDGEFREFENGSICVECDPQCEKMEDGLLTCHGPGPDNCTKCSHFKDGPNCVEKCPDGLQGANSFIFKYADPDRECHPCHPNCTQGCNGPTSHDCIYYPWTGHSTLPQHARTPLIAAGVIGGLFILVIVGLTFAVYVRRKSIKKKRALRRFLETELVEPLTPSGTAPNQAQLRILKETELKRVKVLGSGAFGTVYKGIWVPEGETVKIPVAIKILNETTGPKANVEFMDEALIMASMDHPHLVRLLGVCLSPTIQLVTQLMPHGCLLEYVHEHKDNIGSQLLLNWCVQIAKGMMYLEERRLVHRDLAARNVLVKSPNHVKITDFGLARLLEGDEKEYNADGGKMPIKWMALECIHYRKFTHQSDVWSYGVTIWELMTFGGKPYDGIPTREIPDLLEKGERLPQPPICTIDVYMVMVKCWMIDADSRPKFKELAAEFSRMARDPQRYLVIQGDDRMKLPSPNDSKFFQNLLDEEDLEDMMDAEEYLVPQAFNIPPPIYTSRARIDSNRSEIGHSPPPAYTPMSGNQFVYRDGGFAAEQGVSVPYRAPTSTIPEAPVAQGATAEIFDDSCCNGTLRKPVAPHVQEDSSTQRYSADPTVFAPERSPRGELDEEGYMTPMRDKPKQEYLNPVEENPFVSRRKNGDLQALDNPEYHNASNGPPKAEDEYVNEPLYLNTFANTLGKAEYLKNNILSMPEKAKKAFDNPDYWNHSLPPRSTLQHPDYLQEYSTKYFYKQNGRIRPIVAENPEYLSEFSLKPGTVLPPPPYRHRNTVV
Method: The purpose of this assay is to detect the in vitro inhibitory activity of compounds on HER1(ErbB1), HER2(ErbB2), and HER4(ErbB4). The enzymes used in this assay are human ErbB 1, ErbB2 and ErbB4. Eurofins Pharma Discovery Service provided the method for activity detection. Steps and method of the assay (96-well plate): A buffer solution of the assay compounds in a dilution of 5-fold (5 μL), polypeptide substrate poly(Glu, Tyr) (4:1) (2.5 μL), ErbB (4-20 ng, 2.5 μL), MnCl2 (50 mM, 1.25 μL), dH2O (3.75 μL), and [γ-^33P]ATP (10 μL) were added, and incubated at 30° C. for 10 minutes. The reaction was terminated by adding 3% phosphoric acid. 10 μL of the sample was taken and transferred to Filtermate A. The filter disc was washed 3 times with 75 mM phosphoric acid and once with methanol. The filter disc was transferred to a sealed plastic bag and the scintillation mixture (4 mL) was added. The intensity of the emitted photon was detected by a scintillation luminescence counter. The CPM (times/min) of the enzyme sample was compared with the CPM of the internal control sample. The level of photon intensity reflected the degree of the tyrosine kinase activity.

[3] = molecular target: T1, CYP3A4 (Homo sapiens, UniProt P08684); assay: Inhibition of CYP enzyme activity in human liver microsome, CYP3A4; format: in vitro ADME
T1 construct: in the assay of CYP enzyme activity in human liver microsome; from tissue; host or cells: human liver microsome
T1 sequence (P08684 whole entry): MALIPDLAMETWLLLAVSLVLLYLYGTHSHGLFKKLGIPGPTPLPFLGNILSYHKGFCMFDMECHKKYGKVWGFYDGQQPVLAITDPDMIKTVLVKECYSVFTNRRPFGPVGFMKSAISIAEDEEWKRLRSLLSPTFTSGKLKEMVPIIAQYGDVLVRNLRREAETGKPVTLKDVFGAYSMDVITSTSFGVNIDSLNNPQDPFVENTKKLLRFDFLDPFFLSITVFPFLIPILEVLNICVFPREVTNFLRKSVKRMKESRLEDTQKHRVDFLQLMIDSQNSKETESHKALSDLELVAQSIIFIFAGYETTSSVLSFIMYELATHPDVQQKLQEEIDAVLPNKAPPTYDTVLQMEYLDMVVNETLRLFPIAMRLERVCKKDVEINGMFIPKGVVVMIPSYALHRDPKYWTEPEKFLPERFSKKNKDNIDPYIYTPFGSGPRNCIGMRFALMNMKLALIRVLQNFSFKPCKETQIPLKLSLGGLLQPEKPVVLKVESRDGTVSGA
Source text: (§1) The results of the compound disclosed herein and the reference compound Poziotinib in the assay of CYP enzyme activity in human liver microsome were shown in the following table (Table 17).

[4] = molecular target: T2, CYP2D6 (Homo sapiens, UniProt P10635); assay: Inhibition of CYP enzyme activity in human liver microsome, CYP2D6; format: in vitro ADME; conditions: versus Poziotinib
T2 construct: in the assay of CYP enzyme activity in human liver microsome; from tissue; host or cells: human liver microsome
T2 sequence (P10635 whole entry): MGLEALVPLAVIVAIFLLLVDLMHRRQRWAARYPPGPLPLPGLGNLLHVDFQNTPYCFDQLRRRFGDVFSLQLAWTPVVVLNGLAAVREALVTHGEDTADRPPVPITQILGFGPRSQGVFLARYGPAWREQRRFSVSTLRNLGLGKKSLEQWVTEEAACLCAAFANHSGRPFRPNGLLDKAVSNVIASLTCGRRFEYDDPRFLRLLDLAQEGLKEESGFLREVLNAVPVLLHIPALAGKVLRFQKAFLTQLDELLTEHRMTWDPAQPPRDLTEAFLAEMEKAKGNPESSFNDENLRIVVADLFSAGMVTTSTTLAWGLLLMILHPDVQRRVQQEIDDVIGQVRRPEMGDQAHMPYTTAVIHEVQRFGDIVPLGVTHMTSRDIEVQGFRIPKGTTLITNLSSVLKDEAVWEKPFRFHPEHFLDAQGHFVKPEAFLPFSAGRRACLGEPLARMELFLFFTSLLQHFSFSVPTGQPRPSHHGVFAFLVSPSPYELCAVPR
Source text: as §1

[5] = test system: OE19 cells; assay: CTG assay of OE19 cells; format: cell-based; conditions: conclusion
Method: OE19 cells with saturation of 80%-90% were digested with trypsin, centrifuged, resuspended and counted. The concentration of cells was adjusted to […]. OE19 cells were added to a 96-well cell culture plate to 8000 OE19 cells per well. The cells were cultured in a cell incubator containing 5% CO2 at 37° C. overnight.
The stock solution of the assay compounds was serially 3-fold diluted with DMSO to a total of 10 concentrations. Before the start of the assay, the serially diluted assay compounds were further diluted to 10×compound solutions (the highest concentration of 100 μM containing 1% DMSO) with cell culture medium under sterile conditions. The prepared 10×compound solutions were added to the cell culture plate with 10 μL per well. […]
After 72 hours of cell culture, the 96-well cell culture plate was taken out. […] The cell plate was placed in Envision for reading.
The inhibition rate was calculated according to original data as follows: […]
Non-linear regression analysis was performed using the processed data and GraphPad Prism 6 analysis software to obtain a dose-response curve, and the half-inhibitory concentration (IC50) of the assay compounds on OE19 cells was calculated.

C=CC(=O)N1[C@@H]2CC[C@H]1C[C@H](Nc1cc3c(Nc4ccc(Cl)c(Cl)c4F)ncnc3cc1OC)C2 [Compound of formula (I)]
tumor inhibitory effect (in words) [1]: significant tumor inhibitory effect
inhibitory activity on HER4 (in words) [2]: significant inhibitory activity
inhibitory activity on CYP3A4 (in words) [3]: no inhibitory activity
activity on CYP2D6, times better than the reference compound [4]: 6 times
inhibitory activity on the proliferation of OE19 cells (in words) [5]: significant inhibitory activity
